The supplement of paper PMC10307832

Legend:
Test in all cases: relative viability (nuclei count vs DMSO), 5 days (fraction); higher = more cells survive
[1] = compound: Nc1ccccc1NC(=O)c1ccc(CNC(=O)OCc2cccnc2)cc1 [Entinostat] + CC(C)C[C@H](NC(=O)[C@H](Cc1ccccc1)NC(=O)c1cnccn1)B(O)O [Bortezomib] (partner 0.002 µM)
Summary of the method: (§1)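 One day after seeding in 1536-well plates, lung cancer cell lines were dosed by pin tool. Dosing was either single-drug or a fixed anchor-drug dose plus five library-drug doses (not always all listed) in √10 steps. After 5 days, nuclei were stained in one fix-and-stain step and counted on 4× images, and relative viability is the nuclei count of treated wells over that of vehicle wells, given as the median of duplicate plates.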

[2] = compound: Nc1ccccc1NC(=O)c1ccc(CNC(=O)OCc2cccnc2)cc1 [Entinostat] + Cc1cc(Nc2cc(N3CCN(C)CC3)nc(Sc3ccc(NC(=O)C4CC4)cc3)n2)n[nH]1 [Tozasertib] (partner 0.1 µM)
Summary of the method: as §1

[3] = compound: CN1CCC(CNc2ccc3ncc(-c4cccc(OC(F)(F)F)c4)n3n2)CC1 [SGI-1776] + Nc1nc2[nH]cc(CCc3ccc(C(=O)N[C@@H](CCC(=O)O)C(=O)O)cc3)c2c(=O)[nH]1 [Pemetrexed] (partner 0.2 µM)
Summary of the method: as §1

[4] = compound: Nc1ccccc1NC(=O)c1ccc(CNC(=O)OCc2cccnc2)cc1 [Entinostat] + CS(=O)(=O)CCNCc1ccc(-c2ccc3ncnc(Nc4ccc(OCc5cccc(F)c5)c(Cl)c4)c3c2)o1 [Lapatinib] (partner 2 µM)
Summary of the method: as §1

Cell Line	relative viability ([1]; first compound 0.02 µM)	relative viability ([1]; first compound 0.06325 µM)	relative viability ([1]; first compound 0.2 µM)	relative viability ([1]; first compound 0.6325 µM)	relative viability ([1]; first compound 2 µM)	relative viability ([2]; first compound 0.02 µM)	relative viability ([2]; first compound 0.06325 µM)	relative viability ([2]; first compound 0.2 µM)	relative viability ([2]; first compound 0.6325 µM)	relative viability ([2]; first compound 2 µM)	relative viability ([3]; first compound 0.08 µM)	relative viability ([3]; first compound 0.8 µM)	relative viability ([3]; first compound 2.53 µM)	relative viability ([3]; first compound 8 µM)	relative viability ([4]; first compound 0.02 µM)	relative viability ([4]; first compound 0.06325 µM)	relative viability ([4]; first compound 0.2 µM)	relative viability ([4]; first compound 0.6325 µM)	relative viability ([4]; first compound 2 µM)
LCLC-97TM1	0.69	0.912	0.912	0.355	0.128	0.218	0.213	0.192	0.177	0.167	0.182	0.2	0.143	0.182	0.942	1.21	0.784	0.41	0.326
HCC-78	0.551	0.389	0.27	0.217	0.213	0.577	0.432	0.248	0.241	0.173	0.894	0.875	0.908	0.939	0.829	0.702	0.33	0.169	0.169
NCI-H1975	0.355	0.309	0.271	0.182	0.163	0.516	0.352	0.249	0.122	0.115	0.29	0.288	0.289	0.273	0.812	0.801	0.669	0.274	0.189
